Publication PMC6127852 (Journal of Enzyme Inhibition and Medicinal Chemistry, 2018)
Converted amounts (≈) assume the structure as drawn.

How the values were obtained:
[1] = tested on: polyA-polyU (RNA, polymer) A/U; assay: UV melting at 260 nm; conditions: PBS, I = 0.05 M, cations not specified, pH 7, r = 0.3 [compound]/[polynucleotide]
[2] = tested on: polyA-polyU (RNA, polymer) A/U; assay: UV-Vis titration, Scatchard; conditions: PBS, I = 0.05 M (Table 1 says I = 0.015 M), cations not specified, I = 0.015 M (Methods: 0.05 M)
[3] = tested on: polyG-polyC (polyC-polyG) (RNA, polymer) G/C; assay: UV-Vis titration, Scatchard; conditions: PBS; for log Ks: I = 0.05 M (Table 1 says I = 0.015 M), cations not specified, I = 0.015 M (Methods: 0.05 M)
calf thymus ctDNA = assay: UV–Vis titration with ctDNA (Scatchard); type: binding; conditions: for Hypochromic effect H/%, ctDNA: UV–Vis titration, calculated by Scatchard equation; for Hypochromic effect H/%, ctDNA / log Ks, ctDNA: PBS, pH 7; for log Ks, ctDNA: binding constant, Scatchard
Description: (§1) Polynucleotides were purchased as follows: polyG–polyC, polyA–polyU (Sigma-Aldrich, St. Louis, MO), calf thymus ctDNA (Aldrich). Polynucleotides were dissolved in PBS buffer, I = 0.05 mol dm^−3, pH 7.0. The calf thymus ctDNA was additionally sonicated and filtered through a […] filter. The polynucleotide concentration was spectroscopically determined as the concentration of nucleobases.
(§2) All UV–Vis absorbance measurements were conducted on a Perkin Elmer Lambda 25 spectrophotometer (Perkin Elmer, Waltham, MA). A quartz cell with a 1 cm path length was used for all absorbance studies. Compound stock solutions were 1 mM. The DNA/RNA at increasing ratios was then titrated into the compound buffer solution (1.48 × 10^−5 mol dm^−3) and the corresponding absorption spectra were recorded under the same conditions. All data were graphed and analysed using Origin software version 9.0 (OriginLab Corporation, Northampton, MA). The stability constants (Ks) and [bound compound]/[polynucleotide phosphate] ratios (n) were calculated according to the Scatchard Equation[63] ^, [64]. Values for Ks and n given in Table 1 all have satisfying correlation coefficients (0.99).
(§3) The binding constants logKs and the density of the binding sites n were calculated using Scatchard plot analysis. In addition, the binding constants Ks for compounds 8b and 8e were calculated only for titration data taken at the r ≥ 0.1, because below that ratio changes in absorption maxima were too small for accurate calculation (ΔA ≤ 0.04) (Table 1). The binding constants Ks and ratios n obtained by processing UV–Vis titration data using the Scatchard equation are summarised in Table 1.

polyA-polyU [4] = assay: UV–Vis titration with polyA-polyU (Scatchard); type: binding; conditions: PBS, pH 7; for Hypochromic effect H/%, polyA-polyU: UV–Vis titration, calculated by Scatchard equation; for log Ks, polyA-polyU: binding constant, Scatchard
Description: as §1, §2, §3

polyC-polyG = assay: UV–Vis titration with polyC-polyG (Scatchard); type: binding; conditions: PBS, pH 7; for Hypochromic effect H/%, polyC-polyG: UV–Vis titration, calculated by Scatchard equation; for log Ks, polyC-polyG: binding constant, Scatchard
Description: as §1, §2, §3

ctDNA = assay: Thermal melting (ΔTm) of ctDNA; type: binding, calf; conditions: PBS, pH 7; for ΔTm, ctDNA, r = 0.3: r = [compound]/[polynucleotide] 0.3, error ±0.5 °C
Description: (§4) T m experiments were conducted with a Perkin Elmer Lambda 25 spectrophotometer in 1 cm quartz cuvettes. The absorbance of the DNA/RNA-compound complex was monitored at 260 nm as a function of temperature. The absorbance of the ligands was subtracted from every curve, and the absorbance scale was normalised. The ΔT m values were calculated by subtracting T m of the free nucleic acid from T m of the complex. Every reported ΔT m value was the average of at least two measurements. The error of ΔT m is ±0.5 °C. All data were graphed and analysed using Origin software version 9.0.
(§5) Denaturation experiments were carried out at different amounts of the compounds (r = 0.1, 0.3, 0.5, and 0.7 eq; r = [compound]/[polynucleotide]) with ctDNA and polyA-polyU.

polyA-polyU [5] = assay: Thermal melting (ΔTm) of polyA-polyU; type: binding; conditions: for ΔTm, polyA-polyU, r = 0.1: PBS, pH 7; for ΔTm, polyA-polyU, r = 0.3 / ΔTm, polyA-polyU, r = 0.5: first melting midpoint
Description: as §4, §5

S. aureus MRSA = assay: Broth microdilution MIC, MRSA clinical strain; type: cell-based; conditions: Staphylococcus aureus, antibiotic-resistant clinical strain
Description: (§6) The compounds were evaluated for their in vitro anti-bacterial activity against Gram-positive bacteria: S. aureus (ATCC 25923), MRSA, methicillin-sensitive S. aureus (MSSA), E. faecalis, vancomycin-resistant E. faecium (VREF), and Gram-negative bacteria: E. coli (ATCC 25925), P. aeruginosa (ATCC 27853), A. baumannii (ATCC 19606) and ESBL-producing K. pneumoniae (ATCC 27736). Standard broth microdilution method as recommended in guidelines of Clinical and Laboratory Standards Institute[61] ^, [65] ^, [66] was applied and the minimum inhibitory concentration (MIC) of compounds was tested. In short, testing was performed in U-bottomed 96-well sterile plastic microdilution trays (Falcon 3077, Becton Dickinson Labware, Franklin Lakes, NJ) in cation (Ca^2+ and Mg^2+) adjusted Mueller–Hinton broth medium (Becton Dickinson and Co., Cockeysville, MD). All testings were performed in triplicate.

S. aureus MSSA = assay: Broth microdilution MIC, MSSA clinical strain; type: cell-based; conditions: Staphylococcus aureus
Description: as §6

E. faecium VRE = assay: Broth microdilution MIC, VRE clinical strain; type: cell-based; conditions: Enterococcus faecium
Description: as §6

S. aureus ATCC 25923 = assay: Broth microdilution MIC, S. aureus ATCC 25923; type: cell-based; conditions: Staphylococcus aureus, ATCC25923; Table S2
Description: as §6
(§7) The in vitro anti-bacterial activity of 5-amidinobenzimidazoles 7a–7e, 8a–8e, and 9a–9e was tested against Gram-positive bacteria including S. aureus (ATCC 25923), Enterococcus faecalis (ATCC 29212), and Gram-negative bacteria including E. coli (ATCC 25925), K. pneumoniae (ATCC 700803), P. aeruginosa (ATCC 27853), and Acinetobacter baumannii (ATCC 19606).

E. faecalis ATCC 29212 = assay: Broth microdilution MIC, E. faecalis ATCC 29212; type: cell-based; conditions: Enterococcus faecalis, ATCC29212; Table S2
Description: as §6, §7

E. coli ATCC 25925 = assay: Broth microdilution MIC, E. coli ATCC 25925; type: cell-based; conditions: Escherichia coli, ATCC25925; Table S2
Description: as §6, §7

K. pneumonia ATCC 700803 = assay: Broth microdilution MIC, K. pneumoniae ATCC 700803; type: cell-based; conditions: Klebsiella pneumoniae, ATCC700803; Table S2
Description: as §6, §7

P. aeruginosa ATCC 27853 = assay: Broth microdilution MIC, P. aeruginosa ATCC 27853; type: cell-based; conditions: Pseudomonas aeruginosa, ATCC27853; Table S2
Description: as §6, §7

A. baumannii ATCC 19606 = assay: Broth microdilution MIC, A. baumannii ATCC 19606; type: cell-based; conditions: Acinetobacter baumannii, ATCC19606; Table S2
Description: as §6, §7

[6] = tested on: bloodstream form T. brucei (strain 221); assay: Anti-trypanosomal screening, resazurin; type: cell-based; conditions: Trypanosoma brucei, mean of triplicate ± SEM
Description: Bloodstream form T. brucei (strain 221) were cultured in modified Iscove’s medium, as outlined[67] and trypanocidal assays were performed using 96-well microtitre plates. […] Resazurin was added after 48 h, the plates incubated for a further 16 h, and then read in a Spectramax plate reader (Molecular Devices Corporation, San Jose, CA). The data were analysed using GraphPad Prism (GraphPad, La Jolla, CA). Each drug concentration was tested in triplicate.

Row | SMILES | log Ks ([2]; pH 7, per base) | Hypochromic effect H/%, ctDNA (calf thymus ctDNA) [%] | Hypochromic effect H/%, polyA-polyU (polyA-polyU [4]) [%] | log Ks, polyA-polyU (polyA-polyU [4]) | log Ks, polyC-polyG (polyC-polyG) | ΔTm, ctDNA, r = 0.5 (ctDNA) [°C] | ΔTm, ctDNA, r = 0.7 (ctDNA) [°C] | ΔTm, ctDNA, r = 0.3 (ctDNA) [°C] | ΔTm, polyA-polyU, r = 0.1 (polyA-polyU [5]) [°C] | ΔTm, polyA-polyU, r = 0.3 (polyA-polyU [5]) [°C] | ΔTm, polyA-polyU, r = 0.5 (polyA-polyU [5]) [°C] | MIC (S. aureus MRSA) [µg/mL] | MIC (S. aureus MSSA) [µg/mL] | MIC (E. faecium VRE) [µg/mL] | MIC (S. aureus ATCC 25923) [µg/mL] | MIC (E. faecalis ATCC 29212) [µg/mL] | MIC (E. coli ATCC 25925) [µg/mL] | MIC (K. pneumonia ATCC 700803) [µg/mL] | MIC (P. aeruginosa ATCC 27853) [µg/mL] | MIC (A. baumannii ATCC 19606) [µg/mL] | other results
1 | CC(C)NC(=N)c1ccc2nc(-c3ccc(OCc4cn(CSc5ccccc5)nn4)cc3)[nH]c2c1 | 5.96 | – | – | – | – | – | – | – | – | – | – | – | – | – | – | – | – | – | – | – | ΔTm ([1]; error ±0.5 (shift within error), per base): 0.23 °C; log Ks ([3]; pH 7, per base): 7.20
2 | COc1ccc(-n2cc(COc3ccc(-c4nc5ccc(C6=NCCN6)cc5[nH]4)cc3)nn2)cc1 | – | – | – | – | – | – | – | – | – | – | – | – | – | – | – | – | – | – | – | – | ΔTm ([1]; error ±0.5, biphasic, second midpoint 36.08, per base): 2.67 °C; log Ks ([2]; pH 7, n fixed, per base): 5.46; binding ([3]; pH 7, changes too small for accurate calculation, compound 14.8 µM): weak
3 | CC(C)NC(=N)c1ccc2[nH]c(-c3ccc(OCc4cn(-c5ccccc5)nn4)cc3)nc2c1 [Compound 8a] | 5.87 | 41.0 | 46.5 | 5.87 | 6.17 | 3.94 | 4.25 | 3.35 | 0.32 | 0.64 | 1.11 | 8 (≈ 17.7 µM) | 128 (≈ 283 µM) | 128 (≈ 283 µM) | 128 (≈ 283 µM) | 256 (≈ 567 µM) | 256 (≈ 567 µM) | > 256 | > 256 | > 256 | log Ks, ctDNA (calf thymus ctDNA): 6.17; Hypochromic effect H/%, polyC-polyG (polyC-polyG): 5.86%; IC50 [6]: 7.1 ± 0.7 µM; IC90 [6]: 16.7 ± 1.2 µM; ΔTm ([1]; error ±0.5, per base): 0.64 °C; log Ks ([3]; pH 7, n fixed, per base): 6.17
4 | CC(C)NC(=N)c1ccc2[nH]c(-c3ccc(OCc4cn(Cc5ccccc5)nn4)cc3)nc2c1 [Compound 8d] | 6.13 | 41.2 | 53.8 | 6.13 | 5.54 | 3.32 | 3.63 | 1.76 | 0.91 | 0.51 | 0.72 | 32 (≈ 68.7 µM) | 64 (≈ 137 µM) | 64 (≈ 137 µM) | 64 (≈ 137 µM) | 128 (≈ 275 µM) | > 256 | > 256 | > 256 | > 256 | log Ks, ctDNA (calf thymus ctDNA): 5.93; IC50 [6]: 12.9 ± 0.2 µM; IC90 [6]: 21.6 ± 0.4 µM; log Ks ([3]; pH 7, n fixed, per base): 5.54
5 | CC(C)NC(=N)c1ccc2[nH]c(-c3ccc(OCc4cn(CSc5ccccc5)nn4)cc3)nc2c1.Cl.Cl [Compound 8e, N-isopropyl-2–(4-((1-(phenylthiomethyl)-1H-1,2,3-triazol-4-yl)methoxy)phenyl)-1H-benz[d]imidazole-5-carboximidamide dihydrochloride] | – | 44.2 | 47.2 | 5.96 | 7.20 | 1.72 | 1.71 | 2.22 | 0.52 | 0.23 | 0.26 | 8 | 64 | 64 | 64 | 256 | 256 | > 256 | > 256 | > 256 | log Ks, ctDNA (range r ≥ 0.1) (calf thymus ctDNA; footnote f: mixed binding mode, calculated in range r ≥ 0.1): 6.39; Hypochromic effect H/%, polyC-polyG (polyC-polyG): 5.96%; IC50 [6]: 13.5 ± 0.8 µM; IC90 [6]: 22.5 ± 0.3 µM; melting point: 152 to 154 °C
